Measured values reported in patent US9198915B2, “Methods involving aldose reductase inhibitors” (The Board of Regents of The University of Texas System, priority 2007, dated 2015).

Tests used:
AR [1] = biological target: AR (Homo sapiens, UniProt P15121); conditions: substrate of AR, in the presence of NADPH; cited from earlier work
AR [2] = assay: RNA interference ablation of AR in SAEC (AR protein by Western blot); type: cell-based, human; conditions: transient transfection of SAEC, 100 nM, 48 h
Protocol: The ablation of AR mRNA was essentially carried out as described in the art. Briefly, 2×10^5 SAECs were plated in a 6-well plate and grown until ˜80% confluency. The cells were incubated with serum-free medium containing the AR-siRNA ([…] (SEQ ID NO:1)) or scrambled siRNA (AAAATCTCCCTAAATCA TACA (SEQ ID NO:2); control) to a final concentration of 100 nM and the RNAiFect™ transfection reagent (Qiagen). The cells were cultured for 48 h at 37° C., and AR expression was determined by measuring AR protein by Western blot analysis using anti-AR antibodies.
The ablation of AR mRNA was essentially carried out as described in the art. Briefly, 2×10^5 SAECs were plated in a 6-well plate and grown till >80% confluency. The cells were incubated with serum-free medium containing the AR-siRNA ([…]) (SEQ ID NO:1) or scrambled siRNA (AAAATCTCCCTAAATCA TACA (SEQ ID NO:2); control) to a final concentration of 100 nM and the RNAiFect™ transfection reagent (Qiagen). The cells were cultured for 48 h at 37° C., and AR expression was determined by measuring AR protein by Western blot analysis using anti-AR antibodies.

IL-6, IL-8 and PGE2 [3] = assay: RW-induced IL-6, IL-8 and PGE2 secretion by SAEC (ELISA); type: cell-based, human; conditions: siRNA 100 nM, 48 h, then RW 50 μg/ml 24 h
Protocol: The SAEC were plated in 6-well plates at a density of 2×10^5 cells/well in triplicate for each group. After 24 hours, the medium was replaced with serum-free SABM with or without zopolrestat (20 μM). The growth-arrested and AR ablated cells were stimulated with RW (50 μg/mL) for another 24 hours. The medium was collected from each well, centrifuged and supernatant was analyzed for PGE2 (Cayman Chemical Co., Ann Arbor, Mich.); IL-6 (Diaclone, Stamford, Conn.) and IL-8 (R&D systems Inc, Minneapolis, Minn.) by using an ELISA kits according to the manufacturer's instructions.

IL-6, IL-8 and PGE2 [4] = assay: TNF-α- and LPS-induced IL-6, IL-8 and PGE2 secretion by SAEC (ELISA); type: cell-based, human; conditions: siRNA 100 nM 48 h, then TNF-α or LPS 24 h

Row | Compound | Km (AR [1]) | AR protein abolished (AR [2]) | RW-induced synthesis of IL-6, IL-8 and PGE2 after siRNA ablation of AR (IL-6, IL-8 and PGE2 [3]) | TNF-α and LPS-induced IL-6, IL-8 and PGE2 production after ablation of AR (IL-6, IL-8 and PGE2 [4])
1 | CCCCCC(O)/C=C/C=O (stereo not shown) [HNE, 4-hydroxynonenal] | 10 to 30 µM | – | – | –
2 | AATCGGTGTCTCCAACTTCAA (SEQ ID NO:1) (listed as DNA, chemistry not given here) [AR siRNA, siRNA used to ablate AR mRNA in SAEC, 100 nM] | – | > 95% | significantly prevented | significantly prevented
